From patent publication US20070021397A1, “Neurocyte protective agent” (priority 2003, published 2007)

Columns and labels:
[1] = test system: rat primary culture neurons; assay: OGD test, microscopic observation of cell morphology; conditions: added before OGD treatment; FIG. 2
[2] = test system: rat primary culture cerebral cortex neurons; assay: OGD (oxygen glucose deprivation) test, LDH release; type: cell-based; conditions: added 12 h before OGD; 0.1, 1.0, 10 μM (galantamine 1.0, 10, 100 μM); FIG. 3
Excerpt: After culturing for 7 days or more, cells were subjected to OGD treatment. […] As an indicator for neurocyte protection effect, ratio of LDH release inhibition was used. […] Therefore, when cells are injured by OGD, LDH flows out from inside of the cells into extracellular solution. In this solution, LDH is present depending on the degree of injury of the cells (cell death). The amount of LDH present in the solution can be determined by adding pyruvic acid and NADH to the solution and measuring the decreasing ratio of NADH with an absorption spectrometer.
Subsequently, rat primary culture neurons were subjected to OGD treatment in the same manner as in the previous test.
Then, their effects on LDH release induced by OGD treatment were tested.

[3] = test system: cultured rat septal area neurons; assay: Aβ(1-40) toxicity, LDH leakage from cultured septal area neurons; type: cell-based; conditions: siRNA 1 μmol/L added 24 h before and immediately before 15 μmol/L Aβ(1-40), 48 h; FIG. 12
Description: Septal area neurons were prepared from embryos (18-day-old embryos) of Wistar rats (Charles River Japan). The septal region (including septal area and basal forebrain) was cut out from embryonic brain and incubated in Ca^2+/Mg^2+-free Hanks' balanced salt solution containing 0.25% trypsin and 0.2 mg/ml DNase I at 37° C. for 15 minutes. […] Cells were plated on 96-well poly-D-lysine-coated culture plates at a concentration of 1.2×10^5 cells/well. The plated cells were cultured in a CO2 incubator (5% CO2, 37° C.). After one day, ⅔ of the medium was exchanged for the above-described DMEM containing 5% fetal calf serum. After three days, ⅔ of the medium was exchanged again for the above-described DMEM containing 5% fetal calf serum. After 6 days, the entire medium was exchanged for the above-described DMEM (this time, Gln is not contained) not containing serum.
As an indicator for cytotoxicity, LDH (lactate dehydrogenase) was measured. […] Forty-eight hours after the addition of Aβ(1-40), lactate dehydrogenase (LDH) activity in the medium was measured. At the same time, cells were solubilized with phosphate buffer (pH 7.4) containing 0.5% Triton X-100, followed by measurement of LDH in cells. […] The data were analyzed by analysis techniques of ANOVA and Welch's test.
LDH (lactate dehydrogenase) was measured as an indicator for cytotoxicity. […] The data were analyzed by ANOVA and Welch's test.

In the case of `COc1cc2c(cc1OC)C(=O)C(CC1CCN(Cc3ccccc3)CC1)C2.Cl` (stereo not shown) [Donepezil, 1-benzyl-4-[(5,6-dimethoxy-1-indanone)-2-yl]methylpiperidine], the “protection of neurons by cell morphology” value [1] is reported as “neurons were protected by the addition of donepezil before OGD treatment”.

For `CCN(C)C(=O)Oc1cccc([C@H](C)N(C)C)c1` [Rivastigmine], the “inhibition of LDH release (neurocyte protective effect) after OGD” value [2] was “did not show any neurocyte protective effect”.

“siRNA (i): double-stranded siRNA of acetylcholinesterase, SEQ ID NO: 1 and SEQ ID NO: 2 (chain 1 AAUGUCAGUGACUCUGUUUTT; chain 2 AAACAGAGUCACUGACAUUTT; chemistry not given here)” was tested, and the “protective effect against Aβ(1-40) toxicity (LDH)” value [3] was “inhibit Aβ toxicity”.

With “siRNA (ii): double-stranded siRNA of acetylcholinesterase, SEQ ID NO: 3 and SEQ ID NO: 4 (chain 1 GCUGCCUCAAGAAAGUAUCTT; chain 2 GAUACUUUCUUGAGGCAGCTT; chemistry not given here)” the “protective effect against Aβ(1-40) toxicity (LDH)” value [3] was “inhibit Aβ toxicity”.
